Reference: patent publication US20260345593A1, “ORAL FORMULATION OF N-PYRIDINYL ACETAMIDE DERIVATIVE FOR TREATING INTERSTITIAL LUNG DISEASE” (AstraZeneca AB, priority 2022, published 2026)
Where two headings read alike, the source gives them in different places.

Columns and labels:
[1] = Example 1, first clinical study: pharmacokinetics in healthy subjects; type: in vivo, human; details: for half-life / Tmax: in vivo; for half-life: read-out: geometric mean terminal half-life
Experimental: This study is in two parts—part 1 involves testing a single ascending dose, whilst part 2 involves testing multiple ascending doses.
Part 1 comprises a Screening Period of a maximum of 6 weeks. This is followed by a Treatment Period during which subjects are resident at the Clinical Unit from 1 day before investigational medicinal product (IMP) administration (Day −1) until at least 72 hours after IMP administration (Day 4). Subjects receive a single oral dose of AZD5055 or placebo on Day 1. This is followed by a Follow-up Visit within 6±1 day after the IMP dose.
Part 2 comprises a Screening Period of a maximum of 6 weeks. This is followed by a treatment period during which subjects are resident at the Clinical Unit from 1 day before IMP administration (Day −1) until at least 72 hours after the last dose given on Day 16 (Day 19). Subjects are dosed for a total of 15 days and receive a single once daily morning dose of AZD5055 or placebo on Day 1 and on Days 3 through Day 16, with no dosing on Day 2. This is followed up a Follow-up Visit within 6±1 day after the IMP dose, and an additional Follow-up Visit within 29±2 days after the last IMP dose.
For cohorts with QD dosing regimens, the Screening Period is followed by a Treatment Period during which subjects are resident at the Clinical Unit from 1 day before IMP administration (Day −1) until at least 72 hours after the last dose given on Day 16 (Day 19). Subjects are dosed for a total of 15 days, receiving a single QD morning dose of AZD5055 or placebo on Day 1 and on Days 3 through Day 16.
For cohorts with BID dosing regimens, the Screening Period is followed by a Treatment Period during which subjects are resident at the Clinical Unit from 1 day before IMP administration (Day −1) until at least 72 hours after the last dose given on Day 16 (Day 19).
Subjects are dosed for a total of 15 days, receiving a single morning dose of AZD5055 or placebo on Day 1 and Day 16, and repeated BID dosing on Day 3 through Day 15, 12 hours (±30 minutes) apart.
The study was conducted in healthy male and healthy female subjects of non-childbearing potential with suitable veins for cannulation or repeated venipuncture. […] Also, the subjects were aged 18 to 55 years inclusive for men and women in Part 1 and only men in Part 2. For female subjects in Part 2, the age range was 18 to 49 years inclusive.
In Part 1 of the study, 3 dose levels of AZD5055 were investigated in 3 cohorts. Each cohort included 8 subjects. Within each cohort, 6 subjects were randomized to receive AZD5055, and 2 subjects were randomized to receive placebo. In Part 2 of the study, 3 dose levels of AZD5055 were investigated in 3 cohorts. In each cohort, 9 subjects were randomized to receive AZD5055, and 3 subjects were randomized to receive placebo.
Primary PK parameters: Cmax, AUCinf, and AUClast; secondary PK parameters: including but not limited to tmax, AUC (0-12) or AUC (0-24) (the one not being the primary parameter), t1/2λz, MRTinf, CL/F, Vz/F, Rac, TCP, Ae(t1-t2), fe (t1-t2), and CLR.
No formal statistical hypothesis testing was performed. The analyses of safety, tolerability, PK, and PD data was summarized descriptively by treatment/dose/study day separately using appropriate descriptive statistics including tables, listings, and graphs, as appropriate. Preliminary dose proportionality of AZD5055 after single dose (Day 1) in Part 1 and 2 and multiple dose (Day 16) in Part 2 was assessed graphically and was analyzed using the power model approach with the logarithm of PK parameters (AUC and Cmax on Day 1) and (AUC(0-τ) and Cmax on Day 16) as the dependent variable and the logarithm of the dose as the independent variable. For data collected in Part 2, the time dependency of the PK was evaluated by comparing AUC(0-τ) (Day 16) with AUC (Day 1) and accumulation was evaluated by comparing AUC(0-τ) (Day 16) with AUC(0-τ) (Day 1) and Cmax (Day 16) with Cmax (Day 1). […]

[2] = excipient compatibility study; type: physicochemical
Text: In some embodiments, the diluent is a sugar or sugar-containing, except mannitol. For example, the diluent may be lactose, dextrin, glucose, sucrose, sorbitol. In some embodiments, the diluent is microcrystalline cellulose.
In some embodiments, the lubricant/glidant is glyceryl behenate.

[3] = system: mouse bleomycin in vivo pulmonary fibrosis; details: mouse bleomycin in vivo study (Bunyard 2019); cited from earlier work
β-catenin reporter = β-catenin reporter assay, rodent cells (Bunyard 2019); read-out: in vitro IC50; cited from earlier work
[4] = system: carbon tetrachloride-induced hepatic fibrosis in mice; details: mice (Bunyard 2019); cited from earlier work
[5] = cited from earlier work

Cc1cc(-c2nccc3c2ccn3CC(=O)Nc2ccc(-c3cnccn3)cn2)ccn1 [AZD5055, 2-[4-(2-methyl-4-pyridyl)pyrrolo[3,2-c]pyridin-1-yl]-N-(5-pyrazin-2-yl-2-pyridyl)acetamide]
dose proportionality of exposure ([1]; 5 to 40 mg, single and multiple dose): increased approximately proportionally
half-life ([1]; human, po, multiple daily administration): 12.2 to 17.2 h
Tmax ([1]; human, po, multiple daily doses of 5 to 20 mg, read-out: tmax (medians)): 1 to 1.3 h
Tmax ([1]; human, po, observed, oral dose, read-out: tmax (time to Cmax)): 1 h
half-life ([1]; human, po, single administration): 9.7 to 11.4 h
dose excreted ([1]; human, urine, po, percent of dose administered, read-out: dose recovered unchanged in urine): < 2.3%
between-subject variability in Cmax ([1]; low): < 25%
decline of concentrations ([1]; oral): declined in a bi-phasic manner
renal clearance share of total clearance ([1]; oral): small share of AZD5055 total clearance
absorption ([1]; oral suspension, single ascending doses of 7 to 40 mg): rapidly absorbed
accumulation ([1]; repeat daily administration): Little to moderate accumulation
degradation products with silicon dioxide and magnesium stearate ([2]; glidant and lubricant respectively): additional amounts of degradation products were identified
compatibility with mannitol ([2]; mannitol as diluent): not compatible
degradation products with mannitol ([2]; mannitol as diluent): additional amounts of degradation products were identified
compatibility with silicon dioxide and magnesium stearate ([2]; silicon dioxide as glidant, magnesium stearate as lubricant): not compatible
pulmonary fibrosis [3]: reduced pulmonary fibrosis
IC50 (β-catenin reporter): 0.64 nM
carbon tetrachloride-induced hepatic fibrosis [4]: reduces
solubility [5]: pH dependent
